In patent US20150105252A1, “SUBSTITUTED PYRAZOLES AS HERBICIDES” (E I DU PONT DE NEMOURS AND COMPANY, priority 2013, published 2015):

Columns and labels:
Test in all cases: Test C postemergence
[1] = system: blackgrass; format: in vivo, Alopecurus myosuroides
Method in brief: (§1)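 Greenhouse pot test: preemergence application onto freshly seeded loam/sand mix, postemergence application onto seedlings (1–4 leaves, 2–18 cm) in peat-vermiculite substrate. Responses scored visually 13 to 15 days later relative to controls, where 0 means no effect and 100 means complete control; a dash indicates no result.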

[2] = system: ryegrass, Italian; format: in vivo, Lolium multiflorum
Method in brief: as §1

[3] = system: galium; format: in vivo, Galium aparine
Method in brief: as §1

[4] = system: corn; format: in vivo, Zea mays
Method in brief: as §1

[5] = system: crabgrass, large; format: in vivo, Digitaria sanguinalis
Method in brief: as §1

[6] = system: foxtail, giant; format: in vivo, Setaria faberii
Method in brief: as §1

[7] = system: johnsongrass; format: in vivo, Sorghum halepense
Method in brief: as §1

[8] = system: morningglory; format: in vivo, Ipomoea coccinea
Method in brief: as §1

[9] = system: nutsedge, yellow; format: in vivo, Cyperus esculentus
Method in brief: as §1

[10] = system: pigweed; format: in vivo, Amaranthus retroflexus
Method in brief: as §1

[11] = system: ragweed; format: in vivo, Ambrosia elation
Method in brief: as §1

[12] = system: soybean; format: in vivo, Glycine max
Method in brief: as §1

[13] = system: oilseed rape; format: in vivo, Brassica napus
Method in brief: as §1

[14] = system: waterhemp; format: in vivo, Amaranthus rudis
Method in brief: as §1

[15] = system: oat, wild; format: in vivo, Avena fatua
Method in brief: as §1

[16] = system: kochia; format: in vivo, Kochia scoparia
Method in brief: as §1

[17] = system: velvetleaf; format: in vivo, Abutilon theophrasti
Method in brief: as §1

[18] = system: chickweed; format: in vivo, Stellaria media
Method in brief: as §1

[19] = Postemergence, 31 g ai/ha, visually evaluated after 13 to 15 days
[20] = postemergence, 62 g ai/ha, scale 0 to 100
[21] = postemergence, 250 g ai/ha, scale 0 to 100 (0 no effect, 100 complete control)
[22] = postemergence, 125 g ai/ha, scale 0 to 100, 0 no effect, 100 complete control

CCc1cc(C(=O)NC(C)C)nn1Cc1ccnc(C(F)(F)F)c1 [Compound 103]
80: Plant response rating, Galium [3, 21] | Plant response rating, Pigweed [10, 21] | Plant response rating, Ragweed [11, 22]
95: Plant response rating, Corn [4, 21] | Plant response rating, Johnsongrass [7, 21] | Plant response rating, Soybean [12, 22]
15: Blackgrass plant response rating [1, 20] | Corn plant response rating [4, 20] | Crabgrass, Large plant response rating [5, 20]
100: Plant response rating, Morningglory [8, 21]
45: Plant response rating, Ryegrass, Italian [2, 21] | Plant response rating (scale of 0 to 100 where 0 is no effect and 100 is complete control), Soybean [12, 19] | Plant response rating, Velvetleaf [17, 22]
65: Plant response rating, Pigweed [10, 22] | Waterhemp plant response rating [14, 20] | Plant response rating, Waterhemp [14, 22]
50: Plant response rating (scale of 0 to 100 where 0 is no effect and 100 is complete control), Galium [3, 19] | Plant response rating (scale of 0 to 100 where 0 is no effect and 100 is complete control), Pigweed [10, 19] | Pigweed plant response rating [10, 20] | Oilseed Rape plant response rating [13, 20] | Plant response rating, Oilseed Rape [13, 22] | Plant response rating, Oat, Wild [15, 21] | Plant response rating, Oat, Wild [15, 22] | Plant response rating (scale of 0 to 100 where 0 is no effect and 100 is complete control), Chickweed [18, 19]
35: Plant response rating, Corn [4, 22] | Plant response rating, Crabgrass, Large [5, 22] | Plant response rating (scale of 0 to 100 where 0 is no effect and 100 is complete control), Ragweed [11, 19]
20: Plant response rating, Johnsongrass [7, 22] | Plant response rating, Nutsedge, Yellow [9, 21]
40: Plant response rating, Blackgrass [1, 22] | Plant response rating (scale of 0 to 100 where 0 is no effect and 100 is complete control), Foxtail, Giant [6, 19] | Foxtail, Giant plant response rating [6, 20] | Velvetleaf plant response rating [17, 20]
55: Plant response rating (scale of 0 to 100 where 0 is no effect and 100 is complete control), Waterhemp [14, 19] | Plant response rating, Velvetleaf [17, 21]
75: Plant response rating, Galium [3, 22] | Plant response rating (scale of 0 to 100 where 0 is no effect and 100 is complete control), Morningglory [8, 19] | Morningglory plant response rating [8, 20] | Plant response rating, Chickweed [18, 22]
70: Galium plant response rating [3, 20] | Ragweed plant response rating [11, 20] | Soybean plant response rating [12, 20] | Plant response rating, Oilseed Rape [13, 21]
25: Plant response rating (scale of 0 to 100 where 0 is no effect and 100 is complete control), Velvetleaf [17, 19]
85: Plant response rating, Crabgrass, Large [5, 21] | Plant response rating, Morningglory [8, 22] | Plant response rating (scale of 0 to 100 where 0 is no effect and 100 is complete control), Kochia [16, 19] | Kochia plant response rating [16, 20] | Plant response rating, Kochia [16, 22] | Plant response rating, Chickweed [18, 21]
10: Plant response rating (scale of 0 to 100 where 0 is no effect and 100 is complete control), Blackgrass [1, 19] | Plant response rating (scale of 0 to 100 where 0 is no effect and 100 is complete control), Corn [4, 19] | Plant response rating (scale of 0 to 100 where 0 is no effect and 100 is complete control), Crabgrass, Large [5, 19] | Johnsongrass plant response rating [7, 20] | Plant response rating (scale of 0 to 100 where 0 is no effect and 100 is complete control), Nutsedge, Yellow [9, 19] | Nutsedge, Yellow plant response rating [9, 20] | Plant response rating, Nutsedge, Yellow [9, 22]
90: Plant response rating, Foxtail, Giant [6, 21] | Plant response rating, Ragweed [11, 21] | Plant response rating, Waterhemp [14, 21] | Plant response rating, Kochia [16, 21]
98: Plant response rating, Soybean [12, 21]
60: Plant response rating, Blackgrass [1, 21] | Plant response rating, Foxtail, Giant [6, 22] | Chickweed plant response rating [18, 20]
5: Plant response rating (scale of 0 to 100 where 0 is no effect and 100 is complete control), Ryegrass, Italian [2, 19] | Ryegrass, Italian plant response rating [2, 20] | Plant response rating, Ryegrass, Italian [2, 22] | Plant response rating (scale of 0 to 100 where 0 is no effect and 100 is complete control), Johnsongrass [7, 19] | Plant response rating (scale of 0 to 100 where 0 is no effect and 100 is complete control), Oilseed Rape [13, 19] | Plant response rating (scale of 0 to 100 where 0 is no effect and 100 is complete control), Oat, Wild [15, 19] | Oat, Wild plant response rating [15, 20]
